ChEMBL document CHEMBL4422694, “α-Glucosidase Inhibitory Flavonoids and Oxepinones from the Leaf and Twig Extracts of Desmos cochinchinensis” (J Nat Prod, 2019)
pIC50: −log10 of the molar value.

Legend:
[1] = Inhibition of Saccharomyces cerevisiae alpha-glucosidase using p-nitrophenyl alpha-D-glucoside as substrate by colorimetric assay
Saccharomyces cerevisiae = assay: Inhibition of Saccharomyces cerevisiae alpha-glucosidase at 200 ug/mL using p-nitrophenyl alpha-D-glucoside as substrate by colorimetric assay

SMILES | pIC50 [1] | inhibition (Saccharomyces cerevisiae)
C[C@H]1O[C@H](O[C@H]2[C@H](O)[C@@H](O)[C@@H](O[C@H]3[C@H](O)[C@@H](O)C(O)O[C@@H]3CO)O[C@@H]2CO)[C@H](O)[C@@H](O)[C@@H]1N[C@H]1C=C(CO)[C@@H](O)[C@H](O)[C@H]1O (some centres undefined) [ACARBOSE] | 3.77 | 
O=c1cc(-c2ccccc2)oc2c(Cc3cc(O)ccc3O)c(O)cc(O)c12 | 6.05 | 95.8%
O=c1cc(-c2ccccc2)oc2c(Cc3cccc(O)c3O)c(O)cc(O)c12 | 6.05 | 96.1%
O=C1C[C@@H](c2ccccc2)Oc2c(Cc3ccccc3O)c(O)c(Cc3ccccc3O)c(O)c21 [DICHAMANETIN] | 6.70 | 99.1%
CC(=O)O[C@@H]1C=COC=C(CO)C1=O | 5.31 | 92.1%
O=c1cc(-c2ccccc2)oc2cc(O)cc(O)c12 [CHRYSIN] | 5.31 | 95.4%
O=C1C[C@@H](c2ccccc2)Oc2cc(O)c(Cc3ccccc3O)c(O)c21 [ISOCHAMANETIN] | 5.54 | 93.2%
O=C(OC[C@@]1(O)C(=O)C=C[C@@H](OC(=O)c2ccccc2)[C@@H]1O)c1ccccc1 | 4.14 | 98.7%
COc1cc(O)c2c(=O)cc(-c3ccccc3)oc2c1 [TECHTOCHRYSIN] | 3.80 | 90.9%
O=C1C[C@@H](c2ccccc2)Oc2cc(O)cc(O)c21 [PINOCEMBRIN] | 5.37 | 97.7%

Now from value to compound:

pIC50 [1] | inhibition (Saccharomyces cerevisiae) | SMILES
4.39 | 99.1% | CC(=O)OC/C=C\C=C(/COC(C)=O)COC(=O)c1ccccc1
5.51 | 98.2% | CC(=O)O[C@H]1C(=O)C=COC=C1COC(=O)c1ccccc1 [GRANDIUVARONE A]
5.44 | 95.5% | CC(=O)O[C@@H]1C=COC=C(COC(=O)c2ccccc2)C1=O
5.37 | 97.5% | O=C(OCc1ccccc1O)c1ccccc1
3.86 | 94% | CC(=O)OC/C=C\C=C(/CO)COC(=O)c1ccccc1
